Assay results reported in US11147272B2, “Pyridone compounds and agricultural and horticultural fungicides comprising the same as active ingredients” (MITSUI CHEMICALS AGRO, INC., priority 2017, dated 2021).

How the values were obtained:
[1] = tested on: Colletotrichum orbiculare; assay: Test Example H: Anthracnose on cucumber; conditions: for Test H control value class: Anthracnose on cucumber (Sagami Hanjiro), 2.5 ml/pot, assessed 6 to 10 days after inoculation; for Test H control value: 6 to 10 days after inoculation; for pest or weed control at 250 ppm: Colletotrichum orbiculare, in Cucumis sativus, topical, read-out: Test H control value class
Plasmopara viticola = assay: Test Example G: Downy mildew on vine; conditions: for Test G control value class: Downy mildew on vine (Neomuscat), 2.5 ml/pot, assessed 7 to 10 days after inoculation; for Test G control value: 7 to 10 days after inoculation; for pest or weed control at 250 ppm: Plasmopara viticola, topical, read-out: Test G control value class
[2] = tested on: Blumeria graminis f. sp. hordei; assay: Test Example D: Powdery mildew on barley; conditions: for Test D control value class: class of control value; for pest or weed control at 250 µg/mL: Blumeria graminis, in Hordeum vulgare, topical, read-out: Test D control value class
Alternaia brassicicola = assay: Test Example C: Alternaria sooty spot on cabbage; type: in vivo; conditions: for Test C control value class / pest or weed control at 250 µg/mL: class of control value; for pest or weed control at 250 µg/mL: Brassica oleracea, topical, read-out: Test C control value class
Description: Seeds of a test plant (cabbage variety: Shikidori) were planted and cultivated until the cotyledons extended.
<Control Value> Control value=100{1−(n/3)}

Phytophthora infestans = assay: whole plant or invertebrate; type: in vivo; conditions: for Test F control value class: class of control value; for pest or weed control at 250 µg/mL: Phytophthora infestans, in Solanum lycopersicum, topical, read-out: Test F control value class
Botrytis cinerea = assay: Test Example B: Gray mold on tomato; conditions: for Test B control value class: class of control value; for pest or weed control at 250 µg/mL: Botrytis cinerea, in Solanum lycopersicum, topical, read-out: Test B control value class
Description: Seeds of a test plant (tomato variety: Oogata Fukuju) were planted and cultivated until three to five first leaves (true leaves) appeared. In the test, the inventive compounds were dissolved into dimethyl sulfoxide-methanol mixture solution (volume ratio: 9/1), and the resultant solutions were diluted with well water to a concentration of 250 ppm to obtain the drug solutions. The drug solutions were sprayed to the test plant (2.5 ml/pot). After the drug solutions dried, a conidial suspension (4-8×10^5 conidia/ml) of Botrytis cinerea was inoculated to the plant by spraying. After the inoculation, the plant was kept in a mist chamber at room temperature of 20 to 23° C. for about 48 hours to promote the onset of disease. The degrees of disease development were investigated 2 to 3 days after the inoculation, and the effectiveness of the drug solutions was evaluated.
In Test Examples described above, the degrees of disease development were evaluated in increments of 0.05 from 0 (as no incidence of disease) to 3 (as the degree of disease development in an untreated plant group). Further, control values were calculated using the following equation based on the degree of disease development.
n=Degree of disease development in each treated group
In the table, H: more than 50% control value, L: 50% or less control value, and nt: not tested.

Puccinia recondita = assay: Test Example E: Brown rust on wheat; type: in vivo; conditions: for Test E control value class / pest or weed control at 250 µg/mL: class of control value; for pest or weed control at 250 µg/mL: Puccinia recondita, topical, read-out: Test E control value class
Magnaporthe grisea = assay: whole plant or invertebrate; type: in vivo; conditions: for Test A control value class: class of control value; for pest or weed control at 250 µg/mL: Pyricularia oryzae, in Oryza sativa, read-out: Test A control value class
[3] = Alternaria sooty spot on cabbage
[4] = 250 ppm drug solution sprayed on test plant

Structure (SMILES)	Test H control value class ([1]; 250 ppm spray)	Test G control value class (Plasmopara viticola; 250 ppm spray)	Test D control value class ([2]; Powdery mildew on barley)	Test C control value class (Alternaia brassicicola; [3])	Test F control value class (Phytophthora infestans; Late blight on tomato)	Test B control value class (Botrytis cinerea; Gray mold on tomato)	Test E control value class (Puccinia recondita; Brown rust on wheat)	Test A control value class (Magnaporthe grisea; Blast on rice)	also measured
CCn1c(-c2c(F)cc(F)cc2F)c(C(C)(CC(C)C)OC)cc(Cl)c1=O (racemic) [compound 164]	L (50% or less control value)	H (more than 50% control value)	H (more than 50% control value)	H (more than 50% control value)	L (50% or less control value)	H (more than 50% control value)	H (more than 50% control value)	H (more than 50% control value)	–
CCn1c(-c2c(F)cc(OC)cc2F)c(C(C)(CC(C)C)OC)cc(Cl)c1=O (racemic) [compound 165]	H (more than 50% control value)	H (more than 50% control value)	H (more than 50% control value)	H (more than 50% control value)	L (50% or less control value)	H (more than 50% control value)	H (more than 50% control value)	H (more than 50% control value)	–
CCn1c(-c2c(F)cc(F)cc2F)c(C(C)(F)C(C)C)cc(Cl)c1=O (racemic) [compound 166]	H (more than 50% control value)	H (more than 50% control value)	H (more than 50% control value)	H (more than 50% control value)	H (more than 50% control value)	H (more than 50% control value)	H (more than 50% control value)	H (more than 50% control value)	–
CCn1c(-c2c(F)cc(OC)cc2F)c(C(C)(F)C(C)C)cc(Cl)c1=O (racemic) [compound 167]	H (more than 50% control value)	H (more than 50% control value)	H (more than 50% control value)	H (more than 50% control value)	H (more than 50% control value)	H (more than 50% control value)	H (more than 50% control value)	H (more than 50% control value)	–
CCn1c(-c2c(F)cc(F)cc2F)c(C(OC)C(C)(C)C)cc(Cl)c1=O (racemic) [compound 168]	L (50% or less control value)	L (50% or less control value)	H (more than 50% control value)	H (more than 50% control value)	L (50% or less control value)	H (more than 50% control value)	H (more than 50% control value)	H (more than 50% control value)	–
CCn1c(-c2c(F)cc(OC)cc2F)c(C(OC)C(C)(C)C)cc(Cl)c1=O (racemic) [compound 170]	H (more than 50% control value)	H (more than 50% control value)	H (more than 50% control value)	H (more than 50% control value)	H (more than 50% control value)	H (more than 50% control value)	H (more than 50% control value)	H (more than 50% control value)	–
CCn1c(-c2c(F)cc(OC)cc2F)c(C(C)C(C)C)cc(Cl)c1=O (racemic) [compound 171]	H (more than 50% control value)	H (more than 50% control value)	H (more than 50% control value)	H (more than 50% control value)	L (50% or less control value)	H (more than 50% control value)	H (more than 50% control value)	H (more than 50% control value)	–
CCn1c(-c2c(F)cc(F)cc2F)c(C(Cl)C(C)(C)C)cc(Cl)c1=O (racemic) [compound 172]	H (more than 50% control value)	H (more than 50% control value)	H (more than 50% control value)	H (more than 50% control value)	H (more than 50% control value)	H (more than 50% control value)	H (more than 50% control value)	H (more than 50% control value)	–
CCn1c(-c2c(F)cc(F)cc2F)c(C(C)(O)C(C)(C)C)cc(Cl)c1=O (racemic) [compound 174]	L (50% or less control value)	L (50% or less control value)	H (more than 50% control value)	H (more than 50% control value)	L (50% or less control value)	H (more than 50% control value)	H (more than 50% control value)	H (more than 50% control value)	–
CCn1c(-c2c(F)cc(OC)cc2F)c(C(C)(O)C(C)(C)C)cc(Cl)c1=O (racemic) [compound 180]	L (50% or less control value)	L (50% or less control value)	L (50% or less control value)	H (more than 50% control value)	L (50% or less control value)	H (more than 50% control value)	L (50% or less control value)	H (more than 50% control value)	–
CCn1c(-c2c(F)cccc2F)c(C(C)(F)C(C)C)cc(Cl)c1=O (racemic) [compound 184]	H (more than 50% control value)	H (more than 50% control value)	H (more than 50% control value)	H (more than 50% control value)	L (50% or less control value)	H (more than 50% control value)	H (more than 50% control value)	H (more than 50% control value)	–
CCOC(C)(c1cc(Cl)c(=O)n(CC)c1-c1c(F)cccc1F)C(C)C (racemic) [compound 188]	–	–	–	–	–	–	–	–	Test H control value ([1]; Anthracnose on cucumber, 250 ppm spray): H (more than 50% control value); Test G control value (Plasmopara viticola; Downy mildew on vine, 250 ppm spray): H (more than 50% control value); Test D control value ([2]; Powdery mildew on barley, control value class): H (more than 50% control value); Test C control value (Alternaia brassicicola; Alternaria sooty spot on cabbage, control value class): H (more than 50% control value); Test F control value (Phytophthora infestans; Late blight on tomato, control value class): H (more than 50% control value); Test B control value (Botrytis cinerea; Gray mold on tomato, control value class): H (more than 50% control value); Test E control value (Puccinia recondita; Brown rust on wheat, control value class): H (more than 50% control value); Test A control value (Magnaporthe grisea; Blast on rice, control value class): H (more than 50% control value)
CCC(O)c1ccc(=O)n(CC)c1-c1c(F)cc(F)cc1F (racemic) [compound 469]	–	–	–	–	–	–	–	–	Test H control value ([1]; 250 ppm drug solution sprayed (2.5 ml/pot), cucumber Sagami Hanjiro): H (more than 50% control value); Test G control value (Plasmopara viticola; 250 ppm drug solution sprayed (2.5 ml/pot), grape Neomuscat): L (50% or less control value); Test D control value [2, 4]: L (50% or less control value); Test C control value (Alternaia brassicicola; [4]): H (more than 50% control value); Test F control value (Phytophthora infestans; [4]): L (50% or less control value); Test B control value (Botrytis cinerea; [4]): H (more than 50% control value); Test E control value (Puccinia recondita; [4]): L (50% or less control value); Test A control value (Magnaporthe grisea; [4]): L (50% or less control value)
CCn1c(-c2c(F)cccc2F)c(C)ccc1=O [Compound No. 1, 6-(2,6-difluorophenyl)-1-ethyl-5-methylpyridin-2(1H)-one]	–	–	–	–	–	–	–	–	pest or weed control at 250 ppm [1]: < 50%; pest or weed control at 250 ppm (Plasmopara viticola): < 50%; pest or weed control at 250 µg/mL [2]: < 50%; pest or weed control at 250 µg/mL (Alternaia brassicicola; [3]): < 50%; pest or weed control at 250 µg/mL (Phytophthora infestans): < 50%; pest or weed control at 250 µg/mL (Botrytis cinerea): < 50%; pest or weed control at 250 µg/mL (Puccinia recondita; Brown rust on wheat): < 50%; pest or weed control at 250 µg/mL (Magnaporthe grisea): > 50%
CCn1c(-c2c(F)cccc2F)c(C)cc(Cl)c1=O [Compound No. 2, 3-chloro-6-(2,6-difluorophenyl)-1-ethyl-5-methylpyridin-2(1H)-one]	–	–	–	–	–	–	–	–	pest or weed control at 250 ppm [1]: > 50%; pest or weed control at 250 ppm (Plasmopara viticola): < 50%; pest or weed control at 250 µg/mL [2]: > 50%; pest or weed control at 250 µg/mL (Alternaia brassicicola; [3]): < 50%; pest or weed control at 250 µg/mL (Phytophthora infestans): > 50%; pest or weed control at 250 µg/mL (Botrytis cinerea): < 50%; pest or weed control at 250 µg/mL (Puccinia recondita; Brown rust on wheat): < 50%; pest or weed control at 250 µg/mL (Magnaporthe grisea): > 50%
